Columns and labels:
Phytophthora cinnamomi = assay: Protection of lupin seedlings from infection by P. cinnamomi; assay type: in vivo; conditions: Table 7
Source text: Protection of lupin seedlings from infection by […]

Rhizoctonia solani = assay: Infection of cotton seedlings by Rh. solani (soil application); assay type: in vivo; conditions: Table 7, 16 kg/ha, read-out: Protection of cotton seedlings from infection by Rh. solani
Source text: Infection of cotton seedlings by Rh. solani
100% protection at 16 kg/ha (soil application) ++
50% protection at 16 kg/ha (soil application) +

Monolinia fructicola = assay: Inhibition of spore germination of M. fructicola; assay type: cell-based; conditions: Monilinia fructicola; Table 7; read-out: 50% inhibition of spore germination (Monolinia fructicola spore germination)
Source text: 50% inhibition of spore germination of M. fructicola

Fusarium oxysporum = assay: Infection of tomato seedlings by F. oxysporum (soil application); assay type: in vivo; conditions: read-out: Protection of tomato seedlings from infection by F. oxysporum
Source text: Infection of tomato seedlings by F. oxysporum
100% protection 8 kg/ha (soil application) ++
50% protection at 8 kg/ha (soil application) +

Row | Compound | minimal effective concentration (Phytophthora cinnamomi) [µg/mL] | pest or weed control at 16000 g/ha (Rhizoctonia solani) [%] | IC50 (Monolinia fructicola) [µg/mL] | pest or weed control at 8000 g/ha (Fusarium oxysporum) [%]
1 | CCCCCCCCCCCCNc1c(C#N)c(NC)cc(N)[n+]1C [Compound 27] | 30 | 100 | – | –
2 | CC(C)Nc1cc(N)[n+](C(C)C)c(S(=O)(=O)[O-])c1C#N [Compound 59] | > 8 | 100 | – | –
3 | CCCCCCNc1cc(N)[n+](CCCCCC)c(Sc2ccccc2)c1C#N.[Cl-] [Compound 78, 2-amino-5-cyano-1-n-hexyl-4-n-hexylamino-6-phenylmercapto pyridinium chloride] | ≤ 2 | 50 | ≤ 5 | –
4 | CCCCCCNc1c(Br)c(N)[n+](CCCCCC)c(Cl)c1C#N [Compound 67] | 2 to 8 | – | ≤ 5 | 50
5 | N#Cc1c(NCc2ccccc2)cc(N)[n+](Cc2ccccc2)c1Cl [Compound 17] | 2 to 8 | – | 5 to 50 | 50
6 | CNc1cc(N)[n+](C)c(NCc2ccco2)c1C#N [Compound 23] | > 8 | – | – | 100
7 | CCCCCCCNc1cc(N)[n+](CCCCCCC)c(Cl)c1C#N [Compound 13] | ≤ 2 | – | ≤ 5 | 50
8 | CCCCCCCCNc1cc(N)[n+](CCCCCCCC)c(N)c1C#N [Compound 46] | ≤ 2 | 50 | ≤ 5 | –
9 | CCCCCCCCNc1c(C#N)c(NCCCCCC)cc(N)[n+]1CCCCCC [Compound 44] | ≤ 2 | – | ≤ 5 | 50
10 | CCCCCCNc1cc(N)[n+](CCCCCC)c(NCCCC)c1C#N.[Cl-] [Compound 42, 2-amino-6-n-butylamino-5-cyano-1-n-hexyl-4-n-hexylamino pyridinium chloride] | ≤ 2 | – | ≤ 5 | –
11 | CCCCCCCCNc1cc(N)[n+](CCCCCCCC)c(Cl)c1C#N.[Cl-] [Compound 14, 2-amino-6-chloro-5-cyano-1-n-octyl-4-n-octylamino pyridinium chloride] | ≤ 2 | 100 | ≤ 5 | 50
12 | CCCCNc1cc(N)[n+](CCCC)c(NCc2ccco2)c1C#N [Compound 36] | 2 to 8 | 50 | 5 to 50 | –

— patent US3944557A, “Pyridinium salts” (Commonwealth Scientific & Industrial Research Organization, priority 1973, dated 1976)
